# Laboratory results taken from patent publication US20040077674A1, “Mappicine analogs, intermediates in the synthesis of mappicine analogs and methods of synthesis of mappicine analogs” (priority 2002, published 2004).
# What was measured:
# [1] = molecular target: T1, RNA-dependent DNA polymerase activity of HIV reverse transcriptase (Human immunodeficiency virus type 1 group M subtype B, UniProt P03366); assay: RNA-dependent DNA polymerase activity assay of HIV reverse transcriptase; assay type: biochemical, HIV-1; settings: 10 μM inhibitor concentration, activity in presence / in absence of analog x 100
# T1 construct: made in house
# Procedure: In separate representative assays, mappicine analogs were tested for their ability to inhibit the RNA-dependent DNA polymerase activity of HIV reverse transcriptase and for their ability to inhibit the RNase H activity of HIV reverse transcriptase. The assay for RNA-dependent DNA polymerase activity is discussed in Borkow, G. et al., “Inhibition of the Ribonuclease H and DNA Polymerase Activities of HIV-1 Reverse Transcriptase by N-(4-tert-Butylbenzoyl)-2-hydroxy-1-naphthaldehyde Hydrazone,” Biochemistry 1997, 36, 3179-3185, a copy of which is attached hereto and the disclosure of which is incorporated herein by reference. Assays were carried out in the absence and in the presence of mappicine analogs (10 μM final concentration). The results are reported as % residual activity, which is the RNA-dependent DNA polymerase activity of the enzyme in the presence of the mappicine analog divided by the RNA-dependent activity of the enzyme in the absence of the mappicine analog, multiplied by 100.
# [2] = molecular target: T2, RNase H activity of HIV reverse transcriptase (Human immunodeficiency virus type 1 group M subtype B, UniProt P03366); assay: Fluorescence (FRET)-based RNase H assay of HIV reverse transcriptase; assay type: biochemical, HIV-1; settings: 10 μM inhibitor concentration, activity in presence / in absence of analog x 100
# T2 construct: 2.5 nM of the p51/p66 RT heterodimer in the assay; made in house
# Procedure: Recently, a fluorescence-based assay to perform screens in search of HIV RNase H inhibitors has been developed. The assay, which is carried out in 96-well microplates and is adaptable to robotics, is the first high-throughput screen for RNase H and is described in further detail in the Experimental section. HIV-1 RT and human RNase H were cloned, and thus comparative analysis of inhibitor action could be conducted simultaneously.
# The assay for RNase H activity of HIV reverse transcriptase was the fluorescence-based assay described in detail in the Experimental section and discussed in U.S. Provisional Patent Application Serial No. 60/318,359. Assays were carried out in the absence and in the presence of mappicine analogs (10 μM or 20 μM final concentration). The results are reported as % residual activity, which is the RNase H activity of the enzyme in the presence of the mappicine analog divided by the RNase H activity of the enzyme in the absence of the mappicine analog, multiplied by 100. Alternatively, the results are reported as % inhibition, which is calculated as the ratio of the RNase H activity of the enzyme in the presence of the mappicine analog to the enzyme activity in the absence of the mappicine analog, multiplied by 100, and then subtracting this number from 100.
# Assay for Ribonuclease H Activity Based on Fluorescence Resonance Energy Transfer (FRET)
# Preparation of the Fluorophore-RNA/Quencher-DNA Hybrid Duplex Substrate.
# The RNA/DNA hybrid duplex substrate for use in the assay comprises an RNA oligonucleotide of sequence 5′-GAU CUG AGC CUG GGA GCU-3′, modified at the 3′-end with Aminolink-2 and derivatized with fluorescein isothiocyanate, to provide a modified RNA oligonucleotide of the sequence 5′-GAU CUG AGC CUG GGA GCU-fluorescein-3′, annealed to a complementary DNA oligonucleotide of the sequence 5′-AGC TCC CAG GCT CAG ATC-3′ modified at the 5′-end with Aminolink-2 and derivatized with the FRET acceptor DABCYL succinimidyl ester, to provide a modified DNA oligonucleotide of the sequence 5′-DABCYL-AGC TCC CAG GCT CAG ATC-3′.
# To prepare the 3′-fluorescein-RNA/5′-DABCYL-DNA hybrid duplex substrate, a known amount of 3′-fluorescein-RNA was dissolved in 20 mM Tris buffer (pH 8.0, 37° C.) to provide a final concentration of 5 μM. Two equivalents of the 5′-DABCYL-DNA oligonucleotide were added, and the mixture was heated to 90° C. for 5 min and cooled slowly to room temperature to allow duplex formation. The positioning of the fluorescein donor at the 3′-end of the RNA oligonucleotide and the DABCYL acceptor at the 5′-end of the DNA oligonucleotide provides a very close proximity of the donor and acceptor that results in a very intense quenching of the fluorescein emission in the intact RNA/DNA hybrid duplex substrate due to the spectral overlap of the fluorescence emission of fluorescein with the absorption spectrum of DABCYL. In addition, DABCYL is non-fluorescent, and thus cannot contribute any light emission. Both of these factors result in a very low background and provide a high signal-to-noise in the assay measurements. The ratio of the donor fluorescence in the absence and in the presence of its quencher is approximately fifteen-fold.
# Microplate Assay Protocol for the Measurement of RNase H Activity Using the RNA/IDNA Hybrid Duplex Substrate.
# Reaction assay mixtures contained 5 μl of a stock solution of 2.5 μM RNA/DNA hybrid duplex substrate added to 85 μl of assay buffer (50 mM Tris, pH 8.0, 37° C., containing 60 mM KCl and 2.5 mM MgCl2), prepared in the wells of a 96-well fluorescence microtiter plate, and warmed to 37° C. using the temperature control of the SpectraMax Gemini XS microplate spectrofluorometer (Molecular Devices). Reactions were started by the addition of 5 μl of a solution of recombinant HIV-1 reverse transcriptase (usually providing a final concentration of 2.5 nM of the p51/p66 RT heterodimer in the assay), and mixing using the automatic mixing function of the microplate spectrofluorometer. […]
SMILES,Residual activity (%) Polymerase [1],Residual activity (%) RNase H [2],Residual activity (%) Polymerase ([1]; 10 µM),Residual activity (%) RNase H ([2]; 10 µM)
Cc1c(C(O)Cc2ccccc2)cc2n(c1=O)Cc1c-2nc2ccccc2c1[Si](C)(C)C(C)(C)C (stereo not shown) [5 (4Aε)],83%,93%,,
CCC(O)c1cc2n(c(=O)c1C)Cc1c-2nc2ccc(F)cc2c1[Si](C)(C)C(C)(C)C (stereo not shown) [5 (4Bα)],98%,108%,,
CCC(=O)c1cc2n(c(=O)c1C)Cc1c-2nc2ccc(F)cc2c1[Si](C)(C)C(C)(C)C [5 (4Bακ)],42%,77%,,
Cc1c(C(O)C(C)(C)C)cc2n(c1=O)Cc1c-2nc2ccc(F)cc2c1[Si](C)(C)C(C)(C)C (stereo not shown) [5 (4Bβ)],49%,113%,,
Cc1c(C(=O)C(C)(C)C)cc2n(c1=O)Cc1c-2nc2ccc(F)cc2c1[Si](C)(C)C(C)(C)C [5 (4Bβκ)],82%,79%,,
Cc1c(C(O)CCC2CCCCC2)cc2n(c1=O)Cc1c-2nc2ccc(F)cc2c1[Si](C)(C)C(C)(C)C (stereo not shown) [5 (4Bδ)],44%,90%,,
Cc1c(C(=O)CCC2CCCCC2)cc2n(c1=O)Cc1c-2nc2ccc(F)cc2c1[Si](C)(C)C(C)(C)C [5 (4Bδκ)],56%,96%,,
Cc1c(C(O)Cc2ccccc2)cc2n(c1=O)Cc1c-2nc2ccc(F)cc2c1[Si](C)(C)C(C)(C)C (stereo not shown) [5 (4Bε)],61%,89%,,
CCC(O)c1cc2n(c(=O)c1C)Cc1c-2nc2ccc(C)cc2c1[Si](C)(C)C(C)(C)C (stereo not shown) [5 (4Cα)],94%,91%,,
CCC(=O)c1cc2n(c(=O)c1C)Cc1c-2nc2ccc(C)cc2c1[Si](C)(C)C(C)(C)C [5 (4Cακ)],52%,90%,,
Cc1ccc2nc3c(c([Si](C)(C)C(C)(C)C)c2c1)Cn1c-3cc(C(O)C(C)(C)C)c(C)c1=O (stereo not shown) [5 (4Cβ)],67%,94%,,
Cc1ccc2nc3c(c([Si](C)(C)C(C)(C)C)c2c1)Cn1c-3cc(C(=O)C(C)(C)C)c(C)c1=O [5 (4Cβκ)],67%,65%,,
Cc1ccc2nc3c(c([Si](C)(C)C(C)(C)C)c2c1)Cn1c-3cc(C(O)CCC2CCCCC2)c(C)c1=O (stereo not shown) [5 (4Cδ)],61%,109%,,
Cc1ccc2nc3c(c([Si](C)(C)C(C)(C)C)c2c1)Cn1c-3cc(C(=O)CCC2CCCCC2)c(C)c1=O [5 (4Cδκ)],52%,96%,,
CCC(O)c1cc2n(c(=O)c1C)Cc1c-2nc2ccc(OC)cc2c1[Si](C)(C)C(C)(C)C (stereo not shown) [5 (4Dα)],77%,79%,,
CCC(=O)c1cc2n(c(=O)c1C)Cc1c-2nc2ccc(OC)cc2c1[Si](C)(C)C(C)(C)C [5 (4Dακ)],80%,77%,,
COc1ccc2nc3c(c([Si](C)(C)C(C)(C)C)c2c1)Cn1c-3cc(C(O)C(C)(C)C)c(C)c1=O (stereo not shown) [5 (4Dβ)],47%,91%,,
COc1ccc2nc3c(c([Si](C)(C)C(C)(C)C)c2c1)Cn1c-3cc(C(=O)C(C)(C)C)c(C)c1=O [5 (4Dβκ)],64%,97%,,

SMILES,Residual activity (%) Polymerase [1],Residual activity (%) RNase H [2],Residual activity (%) Polymerase ([1]; 10 µM),Residual activity (%) RNase H ([2]; 10 µM)
COc1ccc2nc3c(c([Si](C)(C)C(C)(C)C)c2c1)Cn1c-3cc(C(O)CCC2CCCCC2)c(C)c1=O (stereo not shown) [5 (4Dδ)],51%,87%,,
COc1ccc2nc3c(c([Si](C)(C)C(C)(C)C)c2c1)Cn1c-3cc(C(=O)CCC2CCCCC2)c(C)c1=O [5 (4Dδκ)],50%,83%,,
COc1ccc2nc3c(c([Si](C)(C)C(C)(C)C)c2c1)Cn1c-3cc(C(O)Cc2ccccc2)c(C)c1=O (stereo not shown) [5 (4Dε)],49%,76%,,
CCC(O)c1cc2n(c(=O)c1C)Cc1c-2nc2ccccc2c1[Si](C)(C)C (stereo not shown) [5 (5Aα)],,,32%,93%
CCC(=O)c1cc2n(c(=O)c1C)Cc1c-2nc2ccccc2c1[Si](C)(C)C [5 (5Aακ)],91%,103%,,
Cc1c(C(O)C(C)(C)C)cc2n(c1=O)Cc1c-2nc2ccccc2c1[Si](C)(C)C (stereo not shown) [5 (5Aβ)],103%,77%,,
Cc1c(C(=O)C(C)(C)C)cc2n(c1=O)Cc1c-2nc2ccccc2c1[Si](C)(C)C [5 (5Aβκ)],47%,97%,,
Cc1c(C(O)CCC2CCCCC2)cc2n(c1=O)Cc1c-2nc2ccccc2c1[Si](C)(C)C (stereo not shown) [5 (5Aδ)],83%,78%,,
Cc1c(C(=O)CCC2CCCCC2)cc2n(c1=O)Cc1c-2nc2ccccc2c1[Si](C)(C)C [5 (5Aδκ)],90%,75%,,
Cc1c(C(O)Cc2ccccc2)cc2n(c1=O)Cc1c-2nc2ccccc2c1[Si](C)(C)C (stereo not shown) [5 (5Aε)],54%,93%,,
CCC(O)c1cc2n(c(=O)c1C)Cc1c-2nc2ccc(F)cc2c1[Si](C)(C)C (stereo not shown) [5 (5Bα)],82%,105%,,
CCC(=O)c1cc2n(c(=O)c1C)Cc1c-2nc2ccc(F)cc2c1[Si](C)(C)C [5 (5Bακ)],74%,89%,,
Cc1c(C(O)C(C)(C)C)cc2n(c1=O)Cc1c-2nc2ccc(F)cc2c1[Si](C)(C)C (stereo not shown) [5 (5Bβ)],74%,102%,,
Cc1c(C(=O)C(C)(C)C)cc2n(c1=O)Cc1c-2nc2ccc(F)cc2c1[Si](C)(C)C [5 (5Bβκ)],63%,100%,,
Cc1c(C(O)CCC2CCCCC2)cc2n(c1=O)Cc1c-2nc2ccc(F)cc2c1[Si](C)(C)C (stereo not shown) [5 (5Bδ)],78%,103%,,
Cc1c(C(=O)CCC2CCCCC2)cc2n(c1=O)Cc1c-2nc2ccc(F)cc2c1[Si](C)(C)C [5 (5Bδκ)],46%,78%,,
Cc1c(C(O)Cc2ccccc2)cc2n(c1=O)Cc1c-2nc2ccc(F)cc2c1[Si](C)(C)C (stereo not shown) [5 (5Bε)],49%,88%,,
